Measured values as given in the supplement of paper PMC10331698.
± gives the standard deviation of the averaged measurements.

Tests used:
Test in all cases: level (log10 ratio to DMSO vehicle control); higher = higher biomarker level / cell amount than vehicle control
Conditions in all cases: in DMSO
[1] = compound: O=C(O)C(F)(F)C(F)(F)OC(F)(F)F [Perfluoro-3-methoxypropanoic acid]
Procedure: (§1)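 BioMAP Diversity Plus panel of 12 human primary cell co-culture systems (3C, 4H, LPS, SAg, BT, BF4T, BE3C, CASM3C, HDF3CGF, KF3CT, MyoF, Mphg). Compounds were added 1 h before stimulation and left for 24 h (MyoF 48 h; BT 72 h for soluble read-outs or 6 d for IgG). Biomarkers were read by ELISA, cytotoxicity by SRB, PBMC viability and proliferation by Alamar Blue. Each well value was divided by the mean of 8 DMSO control wells on the same plate and log10 transformed; duplicate blinded samples were tested at 4 concentrations.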

[2] = compound: O=C(O)C(F)(F)C(F)(F)C(F)(F)OC(F)(C(F)(F)F)C(F)(F)F [Perfluoro-4-isopropoxybutanoic acid]
Procedure: as §1

[3] = compound: O=S(=O)(O)C(F)(F)C(F)(F)C(F)(F)C(F)(F)C(F)(F)C(F)(F)F [Perfluorohexanesulfonic acid]
Procedure: as §1

[4] = compound: FC(F)(F)C(F)(C(F)(F)F)C(F)(F)C(F)(F)CC1CO1 [3-(Perfluoro-3-methylbutyl)-1,2-propenoxide]
Procedure: as §1

[5] = compound: O=C(O)C(F)(F)C(F)(F)C(F)F [4H-Perfluorobutanoic acid]
Procedure: as §1

[6] = compound: NC(=O)C(F)(F)C(F)(F)F [Pentafluoropropionamide]
Procedure: as §1

[7] = compound: O=C(O)C(F)(F)C(F)(F)C(F)(F)C(F)(F)F [Perfluoropentanoic acid]
Procedure: as §1

Row | Test System | level (log10) ([1]; 6700 nM) | level (log10) ([1]; 20000 nM) | level (log10) ([1]; 60000 nM) | level (log10) ([2]; 6700 nM) | level (log10) ([2]; 20000 nM) | level (log10) ([2]; 60000 nM) | level (log10) ([3]; 6700 nM) | level (log10) ([3]; 20000 nM) | level (log10) ([3]; 60000 nM) | level (log10) ([4]; 6700 nM) | level (log10) ([4]; 20000 nM) | level (log10) ([5]; 6700 nM) | level (log10) ([5]; 20000 nM) | level (log10) ([5]; 60000 nM) | level (log10) ([6]; 6700 nM) | level (log10) ([6]; 20000 nM) | level (log10) ([6]; 60000 nM) | level (log10) ([7]; 6700 nM) | level (log10) ([7]; 20000 nM) | level (log10) ([7]; 60000 nM)
1 | BE3C:HLA-DR | -0.014 ± 0.0014 | 0.003 ± 0.023 | -0.0035 ± 0.033 | -0.0045 ± 0.025 | -0.0045 ± 0.016 | 0.0105 ± 0.011 | -0.014 ± 0.031 | -0.0285 ± 0.013 | -0.0585 ± 0.028 | -0.0075 ± 0.005 | -0.003 ± 0.0085 | -0.023 | -0.022 ± 0.0085 | -0.0005 ± 0.028 | -0.0115 ± 0.0078 | 0.0045 ± 0.0064 | 0.0055 ± 0.026 | -0.0095 ± 0.018 | 0 ± 0.011 | 0.016 ± 0.033
2 | 3C:SRB | 0.001 ± 0.0014 | 0.0005 ± 0.019 | -0.004 ± 0.017 | 0.0005 ± 0.011 | -0.0075 ± 0.015 | -0.017 ± 0.024 | -0.011 ± 0.0085 | -0.014 ± 0.0014 | -0.0425 ± 0.019 | 0.0045 ± 0.0064 | -0.01 ± 0.0057 | 0.0015 ± 0.0064 | -0.007 ± 0.016 | -0.0075 ± 0.013 | 0.008 ± 0.031 | -0.001 ± 0.011 | -0.025 ± 0.011 | -0.0115 ± 0.013 | 0.001 ± 0.014 | 0.007 ± 0.018
3 | BF4T:uPA | -0.009 ± 0.021 | -0.0015 ± 0.012 | 0.0155 ± 0.042 | -0.0085 ± 0.00071 | -0.02 ± 0.0085 | 0.0085 ± 0.03 | -0.002 ± 0.027 | -0.007 ± 0.02 | -0.0035 ± 0.037 | -0.0115 ± 0.0078 | -0.0325 ± 0.0078 | 0.002 ± 0.016 | 0.019 ± 0.0014 | 0.0105 ± 0.0021 | -0.013 ± 0.0085 | -0.0075 ± 0.0078 | 0.0045 ± 0.018 | -0.0315 ± 0.029 | -0.031 ± 0.023 | -0.0175 ± 0.033
4 | 3C:HLA-DR | -0.0095 ± 0.015 | -0.043 ± 0.0085 | -0.014 ± 0.0028 | 0.0145 ± 0.044 | -0.0035 ± 0.005 | 0.002 ± 0.016 | -0.0015 ± 0.015 | -0.0105 ± 0.023 | 0.0125 ± 0.047 | 0.0085 ± 0.00071 | 0.018 ± 0.018 | -0.003 ± 0.0057 | -0.013 ± 0.011 | 0.011 ± 0.014 | -0.0255 ± 0.029 | -0.0165 ± 0.013 | -0.0125 ± 0.00071 | -0.0075 ± 0.0035 | 0.0015 ± 0.021 | 0.018 ± 0.037
5 | LPS:SRB | 0.006 ± 0.0085 | 0.011 ± 0.0099 | 0.026 ± 0.0028 | 0.0075 ± 0.015 | 0.018 ± 0.0099 | 0.0215 ± 0.016 | -0.0075 ± 0.013 | -0.0115 ± 0.00071 | -0.0175 ± 0.018 | 0 ± 0.0042 | -0.0035 ± 0.005 | -0.0045 ± 0.0035 | -0.0105 ± 0.0092 | 0.003 | 0 ± 0.014 | -0.006 ± 0.0014 | -0.0105 ± 0.00071 | 0.0015 ± 0.0078 | 0.004 | 0.003 ± 0.0085
6 | BF4T:PAI-I | 0.0015 ± 0.0064 | 0.0105 ± 0.0092 | 0.015 ± 0.017 | 0.004 ± 0.0057 | 0.0125 ± 0.0035 | 0.0085 ± 0.018 | 0.0005 ± 0.03 | -0.015 ± 0.017 | -0.018 ± 0.0028 | -0.0045 ± 0.013 | 0.0005 ± 0.016 | 0.0025 ± 0.013 | -0.01 ± 0.0042 | 0.0105 ± 0.035 | -0.0005 ± 0.0035 | -0.005 ± 0.016 | 0.0015 ± 0.011 | -0.003 ± 0.0014 | -0.005 ± 0.0028 | 0.007 ± 0.011
7 | LPS:IL-1alpha | -0.025 ± 0.0071 | -0.0285 ± 0.0078 | 0.0005 ± 0.0021 | -0.043 ± 0.0071 | -0.0015 ± 0.013 | 0.0205 ± 0.064 | -0.001 ± 0.0085 | 0.0075 ± 0.029 | 0.0365 ± 0.026 | -0.0205 ± 0.011 | 0.0155 ± 0.0092 | -0.038 ± 0.0071 | -0.02 ± 0.0085 | -0.0065 ± 0.023 | 0.0225 ± 0.036 | -0.0175 ± 0.019 | 0.0255 ± 0.047 | -0.0005 ± 0.00071 | -0.0115 ± 0.012 | -0.021 ± 0.017
8 | 4H:CD87/uPAR | -0.031 ± 0.044 | -0.0165 ± 0.047 | -0.0045 ± 0.029 | -0.004 ± 0.03 | -0.013 ± 0.0028 | -0.0075 ± 0.0035 | -0.002 ± 0.023 | 0.0065 ± 0.013 | -0.0055 ± 0.022 | -0.005 ± 0.027 | 0.0075 ± 0.04 | -0.0265 ± 0.025 | -0.0065 ± 0.0035 | -0.004 ± 0.044 | 0.009 ± 0.02 | -0.0185 ± 0.00071 | -0.009 ± 0.0099 | -0.0435 ± 0.035 | -0.0355 ± 0.005 | -0.055 ± 0.0028
9 | BF4T:CCL26/Eotaxin-3 | -0.033 ± 0.0085 | -0.031 ± 0.016 | 0.02 ± 0.057 | -0.0055 ± 0.09 | -0.0185 ± 0.069 | -0.0105 ± 0.016 | 0.003 ± 0.0099 | -0.001 ± 0.02 | -0.0165 ± 0.037 | 0.012 ± 0.028 | -0.0095 ± 0.016 | -0.035 ± 0.011 | 0.0085 ± 0.0035 | -0.0115 ± 0.063 | -0.009 ± 0.017 | -0.0155 ± 0.023 | -0.0135 ± 0.011 | -0.0155 ± 0.029 | -0.0165 ± 0.0092 | 0.018 ± 0.05
10 | BE3C:CXCL11/I-TAC | -0.0125 ± 0.0035 | -0.0115 ± 0.0092 | 0.0045 ± 0.00071 | -0.0095 ± 0.005 | 0.008 ± 0.0014 | 0.018 ± 0.0099 | -0.004 ± 0.016 | 0.004 ± 0.011 | 0.0035 ± 0.016 | 0 ± 0.0057 | -0.0075 ± 0.0035 | -0.0015 ± 0.0064 | 0.008 ± 0.014 | 0.031 ± 0.011 | -0.0065 ± 0.0092 | -0.0055 ± 0.018 | -0.006 ± 0.0071 | -0.0175 ± 0.012 | -0.015 ± 0.0028 | -0.005 ± 0.014
11 | 4H:CCL2/MCP-1 | -0.0045 ± 0.039 | -0.0095 ± 0.0092 | 0.003 | 0 | -0.0255 ± 0.005 | 0.0155 ± 0.059 | -0.0205 ± 0.044 | -0.049 ± 0.031 | -0.0195 ± 0.054 | -0.038 ± 0.013 | 0.001 ± 0.042 | -0.066 ± 0.047 | -0.0555 ± 0.029 | -0.0005 ± 0.028 | -0.028 ± 0.0042 | -0.0445 ± 0.03 | 0 ± 0.075 | -0.0085 ± 0.052 | -0.047 ± 0.0042 | 0.014 ± 0.052
12 | BE3C:CXCL10/IP-10 | 0.0025 ± 0.005 | -0.0095 ± 0.0035 | 0.0025 ± 0.011 | 0.003 ± 0.0014 | 0.0135 ± 0.00071 | 0.0155 ± 0.015 | -0.0035 ± 0.00071 | -0.01 ± 0.0071 | -0.0405 ± 0.016 | -0.0115 ± 0.023 | -0.0065 ± 0.011 | -0.006 ± 0.021 | -0.001 ± 0.0099 | 0.017 ± 0.021 | -0.008 ± 0.0085 | 0 ± 0.0028 | -0.0015 ± 0.0064 | -0.0085 ± 0.016 | -0.013 ± 0.021 | 0.0005 ± 0.005
13 | 4H:CCL26/Eotaxin-3 | -0.013 ± 0.013 | -0.0085 ± 0.019 | 0.021 ± 0.0099 | 0.0175 ± 0.042 | -0.023 ± 0.0057 | -0.0135 ± 0.00071 | -0.0105 ± 0.00071 | -0.001 ± 0.02 | -0.047 ± 0.018 | -0.002 ± 0.018 | 0.013 ± 0.013 | -0.0165 ± 0.012 | -0.008 ± 0.011 | 0.008 ± 0.0085 | -0.001 ± 0.013 | -0.0015 ± 0.013 | 0.0065 ± 0.026 | 0.0015 ± 0.0035 | -0.0185 ± 0.022 | 0.004 ± 0.05
14 | BE3C:CD54/ICAM-1 | 0.003 ± 0.013 | -0.0035 ± 0.0021 | 0.0065 ± 0.011 | -0.0095 ± 0.022 | -0.014 ± 0.024 | -0.0245 ± 0.005 | 0 ± 0.027 | 0.0025 ± 0.016 | 0.008 ± 0.013 | -0.0095 ± 0.019 | -0.0065 ± 0.0092 | -0.0085 ± 0.0021 | -0.0245 ± 0.00071 | 0.0125 ± 0.033 | -0.0045 ± 0.0021 | 0.002 ± 0.0028 | -0.0055 ± 0.00071 | -0.006 ± 0.0085 | -0.0095 ± 0.00071 | 0.0055 ± 0.039
15 | SAg:CD69 | 0.0005 ± 0.00071 | 0.0225 ± 0.011 | -0.0005 ± 0.018 | -0.0085 ± 0.00071 | -0.0055 ± 0.005 | -0.016 ± 0.0042 | -0.0235 ± 0.00071 | -0.0175 ± 0.012 | -0.06 ± 0.0014 | -0.0125 ± 0.015 | -0.006 ± 0.059 | -0.0145 ± 0.015 | -0.0165 ± 0.015 | 0.005 ± 0.027 | -0.026 ± 0.013 | -0.0385 ± 0.018 | -0.026 ± 0.0071 | 0.002 ± 0.016 | -0.0155 ± 0.028 | -0.0165 ± 0.033
